From patent publication US20120149101A1, “METHODS AND KITS FOR REGULATING INTRACELLULAR TRAFFICKING OF A TARGET PROTEIN” (INSTITUT CURIE, priority 2009, published 2012) come the findings set out here.

For assay [1], the target named is T1, interaction between SBP-Tag and Streptavidin (Streptomyces avidinii, UniProt P22629, L133T/T100R/V149R/V79T).
T1 construct: expressed in transfected cells; host or cells: HeLa cells, transient transfection of the hook-IRES-reporter plasmid
The assay is described as follows: RUSH^L[ID]: release of SBP-tagged reporters from the hook Ii-Core streptavidin, by immunofluorescence and time-lapse imaging. In kind it is cell-based, human. The procedure:
The Reporter ST-SBP-GFP is retained in the ER in cells expressing the hook Ii-Core streptavidin. Biotin is added at time 00:00 (min sec) and the release of the reporter is followed by time-lapse fluorescent imaging using a spinning disk equipped confocal microscope at 37° C. The Reporter starts to be visible in the Golgi apparatus in a very short time (9:30) and labels massively the Golgi apparatus by 30 minutes.
The Reporter SBP-GFP-Ecadherin is retained in the ER in cells expressing the hook Ii-Core streptavidin. Biotin is added at time 00:00 (min:sec) and the release of the reporter is followed by time-lapse fluorescent imaging using a spinning disk equipped confocal microscope at 37° C. The Reporter is visualized using GFP as a detection domain. Significant quantities of the reporter are visible in the Golgi apparatus from 03:30 and continue to increase. The reporter starts to be visible at the plasma membrane around 30:00. Note that transport intermediates (in the form of punctuate staining) are visible at early (ER to Golgi) and late (Golgi to plasma membrane) time points.
(§1) Hela cells were grown at 37° C. in DMEM (Invitrogen) supplemented with L-glutamine, Sodium Pyruvate and 10% Fetal Calf Serum. For transient transfection, cells were plated on coverslips in 150-mm culture dishes and transfected with 25 μg of the plasmid hook-IRES-reporter using the calcium phosphate precipitation method, in presence of 25 mM HEPES. After 4 hours, cells were washed out with fresh medium and incubated overnight in presence of 3.1 nM Rapamycin (Sigma). Then cells were washed out 3 times with medium, and incubated in prewarmed medium with 3.3 μM FK506 (Cayman) and […] cycloheximide (CHX) for several time points. For each time point, 1 mL of medium containing FK506 and CHX was added into a well of a 12-well plate. Then cells were fixed with 4% PAF and processed for fluorescent microscopy. In the streptavidin/SBP set-up, transfection is done similarly but no addition is done when washing the cells after transfection. After 1-hours, biotin (10 μM) is added to induce reporter release. Then cells are then processed as in the MD set-up.
Cells were fixed in paraformaldehyde 3% for 15 min, washed in PBS (Phosphate Buffer Saline) and free aldehydes were quenched in NH4Cl 50 mM for 5 min. Cells were then permeabilized in PBS containing Bovine Serum Albumine (BSA 0.5%) and Saponine (Sapo 0.05%) [PBS/BSA/Sapo] for 20 min and incubated with primary antibodies (human anti-Giantin, Nizak et al. 2003, Moutel et al., 2009) in the same buffer for 30 min Cells were washed in PBS and incubated in PBS/BSA/Sapo with fluorescently labelled secondary antibodies (Jackson Immunoresearch) for 20 min Nuclei were counter-stained with DAPI (4′,6-Diamidino-2-phenylindole, Sigma-Aldrich). Cells were finally washed in PBS before being mounted in Mowiol (Sigma-Aldrich) and observed by fluorescent microscopy.
A hook was constructed using the ER localized Ii33 fused to monomeric Streptavidin (SEQ ID NO:3) (FRAP of the construct from Example 1 is replaced by monomeric Streptavidin). The reporter was the Golgi localization domain of Sialyl Transferase as used in Example 1. The Hook and reporter were co-expressed in cells and the two domains, streptavidin and SBP-tag interact by default, preventing ST transport to the Golgi apparatus. Release of ST was achieved using moderate concentration of free biotin (around 1-10 μM).

Assay [2] addresses T2, interaction between SBP and core streptavidin (Streptomyces avidinii, UniProt P22629).
T2 construct: the FRAP domain is replaced by Core streptavidin which was amplified by PCR; expressed in transfected cells; host or cells: HeLa cells, transient transfection of the hook-IRES-reporter plasmid
As to the kind of experiment: RUSH^C[ID]: release of the reporter TMD22 from the hook TMD17-streptavidin. In kind it is cell-based, human. To be noted: upon biotin addition; cytoplasmic topology. As to the method: as §1
Cells were fixed in paraformaldehyde 3% for 15 min, washed in PBS (Phosphate Buffer Saline) and free aldehydes were quenched in NH4Cl 50 mM for 5 min. […]

Setting [3] is: upon biotin addition, surface anti-GFP.

T1 sequence (P22629 25-183 V79T/T100R/L133T/V149R limits assumed): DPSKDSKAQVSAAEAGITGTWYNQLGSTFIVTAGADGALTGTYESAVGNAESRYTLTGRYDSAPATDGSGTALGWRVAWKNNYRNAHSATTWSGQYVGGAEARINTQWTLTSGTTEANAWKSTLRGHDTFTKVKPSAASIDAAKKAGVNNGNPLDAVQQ
T2 sequence (P22629 with tags, fused parts or gaps): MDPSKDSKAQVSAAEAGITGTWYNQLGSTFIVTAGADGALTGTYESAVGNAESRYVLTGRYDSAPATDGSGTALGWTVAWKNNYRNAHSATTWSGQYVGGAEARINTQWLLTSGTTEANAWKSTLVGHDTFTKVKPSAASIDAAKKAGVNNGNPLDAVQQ

In the case of `O=C(O)CCCC[C@@H]1SC[C@@H]2NC(=O)N[C@@H]21` [Biotin, D-Biotin], the “time by which reporter labels massively the Golgi apparatus” value in assay [1] (reporter ST-SBP-GFP, biotin added at 00:00, 37° C.) was not above 30 min. Also, the “concentration of free biotin achieving release of ST” value in assay [1] (reporter ST, hook Ii33-Streptavidin) was in the range of 1 to 10 µM. For the same compound, the “release of reporters ST-SBP-GFP and ManII-SBP-mCherry to the Golgi apparatus” value in assay [1] (upon addition of biotin) is “they both reach the Golgi apparatus”. Moreover, in assay [1] (setting [3]), the “release of reporter SBP-GFP-Ecadherin to the plasma membrane” value was “the reporter is released and reaches its target plasma membrane compartment”; the “release of reporter SBP-GFP-VSV-G to the plasma membrane” value is “the reporter is released and reaches its target plasma membrane compartment”. The “release of reporter TMD22 toward the plasma membrane” value in assay [2] is recorded as “release was observed”.
